Data set [1] can be described thus: Degradation of the drug during dissolution in tertiary butanol/water, lyophilization and secondary drying. It counts as physicochemical. The following applies: dissolution at 5° C. in tertiary butanol/water, lyophilization at −16° C. 48 hours, drying at 15° C. under high vacuum 48 hours, light protected. The method, then:
[1S-[1R*,3R*(E),7R*,10S*,11R*,12R*,16S*]]-[…]-8,8,10,12,16-pentamethyl-3-[1-methyl-2-(2-methyl-4-thiazolyl)ethenyl]-4-aza-17-oxabicyclo[14.1.0]heptadecane-5,9-dione, 9.86 g, was wetted/partially dissolved with 600 mL of a 9:1 mixture of tertiary butanol and Water for Injection USP which had been pre-cooled to 5° C. Once the drug powder had become completely wetted, dissolution was completed by the addition of 600 mL of a 1:9 mixture of tertiary butanol and Water for Injection and 766 mL of a 1:1 mixture of tertiary butanol and Water for Injection which likewise had been pre-cooled to 5° C. thereby making the final solution a 1:1 mixture. The dissolution was carried out under protection from light.
The solution formed above was promptly lyophilized in a Virtis INOTOP lyophilizer at −16° C. under light protectant conditions over a period of 48 hours. The resultant lyophilized product (lyophile) was then further dried at 15° C. under high vacuum for 48 hours. […] The lyophile was packaged under sterile conditions into 30 mL vials, each containing 10 mg of drug and standard excess to allow for vial/needle/syringe loss.

Data set [2] is described as follows: Physicochemical properties of the epothilone analogs relevant to compounding (solubility, stability in aqueous media, pH, light, wetting). From the text:
Any one or two of these characteristics might be compensated for in compounding a pharmaceutical formulation for intravenous administration, but the combination of all of them presents a formidable challenge to the pharmaceutical compounding chemist.

A short description of data set [3]: Cytotoxic classification of the epothilone analogs.

Take `C/C(=C\c1csc(C)n1)C1C[C@@H]2O[C@]2(C)CCC[C@H](C)[C@H](O)[C@@H](C)C(=O)C(C)(C)[C@@H](O)CC(=O)N1` (relative stereo) [formula II, [1S-[1R*,3R*(E),7R*,10S*,11R*,12R*,16S*]]-7,11-Dihydroxy-8,8,10,12,16-pentamethyl-3-[1-methyl-2-(2-methyl-4-thiazolyl)ethenyl]-4-aza-7-oxabicyclo[14.1.0]heptadecane-5,9-dione]: in data set [1], the “degradation of the drug” value is given as “No detectable degradation”. In data set [2], the light sensitivity entry was “light sensitive” and the wetting characteristics result is “exceptionally poor”. The “solubility in aqueous media” value in data set [2] (aqueous media) is “very low solubility”. Further, the “degradation in contact with aqueous media” value in data set [2] (in contact with aqueous media) is “rapidly degrade”. Further, in data set [2] (in solution), the “sensitivity to low pH” value was “sensitive to low pH”. For the same compound, in data set [3], the cytotoxic class result is on record as “Class D”.
